Measured values from US4987150A, “Agent for inhibiting binding of 5-dihydro-testosterone with androgen receptor as well as process for obtaining same” (Kabushiki Kaisha Vitamin Kenkyusho, priority 1987, dated 1991).

Assays:
androgen receptor = target: T1, androgen receptor (Mesocricetus auratus, UniProt A0A1U7QL32); experiment: Inhibition of [3H]R1881 binding with androgen receptor (Pharmacological Test Example 1; also Test Example 2); set-up: species or system male Syrian hamster (sebaceous gland in flank organ); settings: for IC50: chemically synthesized xanthones, calculated from inhibition rate, 1 nM [3H]R1881, 0° C., 16 hours, read-out: Concentration for 50% Inhibition
T1 construct: a sebaceous gland in flank organ was excised and homogenized; from tissue; host or cells: male Syrian hamster flank organ sebaceous gland, 16 hours after castration; supernatant of homogenate centrifuged at 30,000 rpm for 1 hour
T1 sequence (A0A1U7QL32 1-900): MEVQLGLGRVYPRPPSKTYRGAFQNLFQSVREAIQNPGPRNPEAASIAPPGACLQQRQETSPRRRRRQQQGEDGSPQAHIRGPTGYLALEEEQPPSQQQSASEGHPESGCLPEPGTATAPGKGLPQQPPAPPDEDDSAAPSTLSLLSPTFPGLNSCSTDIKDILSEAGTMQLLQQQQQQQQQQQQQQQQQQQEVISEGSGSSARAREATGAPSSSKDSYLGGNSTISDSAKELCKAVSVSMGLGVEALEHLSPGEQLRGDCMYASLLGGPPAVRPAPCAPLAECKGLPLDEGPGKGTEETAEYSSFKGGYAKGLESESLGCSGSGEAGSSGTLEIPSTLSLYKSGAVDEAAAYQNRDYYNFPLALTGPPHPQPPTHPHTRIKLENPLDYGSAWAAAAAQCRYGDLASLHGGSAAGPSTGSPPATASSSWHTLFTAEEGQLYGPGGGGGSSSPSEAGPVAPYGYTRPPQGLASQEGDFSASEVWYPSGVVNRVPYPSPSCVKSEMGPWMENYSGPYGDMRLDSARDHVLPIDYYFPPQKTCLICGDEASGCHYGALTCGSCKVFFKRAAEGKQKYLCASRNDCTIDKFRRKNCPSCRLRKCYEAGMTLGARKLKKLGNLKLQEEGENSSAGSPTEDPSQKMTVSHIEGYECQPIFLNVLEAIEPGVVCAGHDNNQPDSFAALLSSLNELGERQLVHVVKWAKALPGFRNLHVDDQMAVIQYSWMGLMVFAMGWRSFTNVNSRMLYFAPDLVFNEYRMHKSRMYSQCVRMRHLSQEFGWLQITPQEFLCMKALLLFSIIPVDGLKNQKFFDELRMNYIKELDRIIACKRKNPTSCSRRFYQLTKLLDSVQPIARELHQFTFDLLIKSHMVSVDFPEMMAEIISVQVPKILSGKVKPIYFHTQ
Method: (a) Preparation of androgen receptor
From a male Syrian hamster 16 hours after castration, a sebaceous gland in flank organ was excised and homogenized in 5-10 times (volume) of 50 mM-Tris-HCl buffer (pH 7.4) containing 1.5 mM-EDTA, 1 mM-DTT, 10 mM-Na2 MoO4, and 10% (w/v) glycerol. The homogenate was centrifuged at 3,000 rpm and 0°-4° C. for 10 minutes to obtain the supernatant, which was further centrifuged at 30,000 rpm and 0°-4° C. for 1 hour to obtain the supernatant to be employed as androgen receptor.
(b) Determination of inhibitory activity
Then the mixture was added with a suspension (500 μl) of 0.5% charcoal and 0.05% dextran T-70. After standing at 0° C. for 10 minutes, the mixture was centrifuged at 3,000 rpm for 10 minutes. The supernatent (300 μl) was mixed with a liquid scintillator to measure the radioactivity due to binding of [^3 H]R1881 with the androgen receptor in scintillation counter. The inhibition rate of each extract was calculated according to the following equation.
Inhibition (%)=[(c-s)/c]×100 […]
c: specific binding amount of [^3 H]R1881 with androgen receptor without addition of test sample; and s: specific binding amount of [^3 H]R1881 with androgen receptor with addition of the test sample.

5α-reductase = settings: reported in Jap. Pat. No. 60-126218 (A); cited from earlier work

SMILES | IC50 (androgen receptor) [µM] | also measured
CC1(C)CC[C@]2(C(=O)O)CC[C@]3(C)C(=CC[C@@H]4[C@@]5(C)CC[C@H](O)C(C)(C)[C@@H]5CC[C@]43C)[C@@H]2C1 [oleanolic acid] | – | inhibition of the activity of 5α-reductase (5α-reductase): showing the inhibition
O=c1c2c(O)cc(O)cc2oc2c(O)ccc(O)c12 [Test sample A, 1,3,5,8-Tetrahydroxyxanthone] | – | inhibition of binding of 5α-DHT with androgen receptor (androgen receptor; statement in words): shows the inhibition of binding of 5α-DHT with androgen receptor
O=c1c2c(O)cc(O)cc2oc2c(O)ccc(O)c12 [A] | 8 | –
O=c1c2ccc(O)cc2oc2c(O)ccc(O)c12 [C] | 1.8 | –

Further lines, with some results ahead:

IC50 (androgen receptor) [µM] | SMILES | also measured
4.1 | O=c1c2ccc(O)cc2oc2cc(O)cc(O)c12 [E] | –
20 | O=c1c2c(O)cccc2oc2cc(O)cc(O)c12 [F] | –
53 | O=c1c2ccccc2oc2cc(O)cc(O)c12 [G] | –
7.6 | O=c1c2ccc(O)cc2oc2cccc(O)c12 [H] | –
34 | O=c1c2cccc(O)c2oc2cc(O)cc(O)c12 [D] | –
5.1 | O=c1c2c(O)cc(O)cc2oc2cc(O)cc(O)c12 [B] | –
